Experiments:
wild oat = experiment: Test B pre/postemergence wild oat; type: in vivo, Avena fatua; conditions: Preemergence; for Plant response rating, Wild oats: Rate 125 g/ha
Outline: (§1)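 Response is a visual 0-to-10 score relative to untreated plants, where 0 means no effect and 10 means complete control, taken twelve to sixteen days after application. Treatments went onto soil at planting and onto foliage of 1- to 4-leaf plants, using a surfactant-containing non-phytotoxic solvent.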

wheat = experiment: Test B pre/postemergence wheat; type: in vivo, Triticum aestivum; conditions: Preemergence; for Plant response rating, Wheat: Rate 125 g/ha
Outline: as §1

bedstraw = experiment: Test B pre/postemergence bedstraw; type: in vivo, Galium aparine; conditions: Preemergence; for Plant response rating, Bedstraw: Rate 125 g/ha
Outline: as §1

velvetleaf = experiment: Test B pre/postemergence velvetleaf; type: in vivo, Abutilon theophrasti; conditions: Preemergence; for Plant response rating, Velvetleaf: Rate 125 g/ha
Outline: as §1

giant foxtail = experiment: Test B pre/postemergence giant foxtail; type: in vivo, Setaria faberii; conditions: Preemergence; for Plant response rating, Giant foxtail: Rate 125 g/ha
Outline: as §1

cocklebur = experiment: Test B pre/postemergence cocklebur; type: in vivo, Xanthium strumarium; conditions: Preemergence; for Plant response rating, Cocklebur: Rate 125 g/ha
Outline: as §1

sugar beet = experiment: Test B pre/postemergence sugar beet; type: in vivo, Beta vulgaris; conditions: Preemergence; for Plant response rating, Sugarbeets: Rate 125 g/ha
Outline: as §1

corn = experiment: Test B pre/postemergence corn; type: in vivo, Zea mays; conditions: Preemergence; for Plant response rating, Corn: Rate 125 g/ha
Outline: as §1

morningglory = experiment: Test B pre/postemergence morningglory; type: in vivo, Ipomoea hederacea; conditions: Preemergence; for Plant response rating, Morningglory: Rate 125 g/ha
Outline: as §1

rape = experiment: Test B pre/postemergence rape; type: in vivo, Brassica napus; conditions: Preemergence; for Plant response rating, Rape: Rate 125 g/ha
Outline: as §1

blackgrass = experiment: Test B pre/postemergence blackgrass; type: in vivo, Alopecurus myosuroides; conditions: Preemergence; for Plant response rating, Blackgrass: Rate 125 g/ha
Outline: as §1

soybean = experiment: Test B pre/postemergence soybean; type: in vivo, Glycine max; conditions: Preemergence; for Plant response rating, Soybean: Rate 125 g/ha
Outline: as §1

crabgrass = experiment: Test B pre/postemergence crabgrass; type: in vivo, Digitaria sanguinalis; conditions: Preemergence; for Plant response rating, Crabgrass: Rate 125 g/ha
Outline: as §1

pigweed = experiment: Test B pre/postemergence pigweed; type: in vivo, Amaranthus retroflexus; conditions: Preemergence; for Plant response rating, Redroot pigweed: Rate 125 g/ha
Outline: as §1

surinam grass = experiment: Test B pre/postemergence surinam grass; type: in vivo, Brachiaria decumbens; conditions: Preemergence; for Plant response rating, B. signalgrass: Rate 125 g/ha
Outline: as §1

purple nutsedge = experiment: Test B pre/postemergence purple nutsedge; type: in vivo, Cyperus rotundus; conditions: Preemergence; for Plant response rating, Nutsedge: Rate 125 g/ha
Outline: as §1

[1] = Rate 62 g/ha, scale of 0 to 10 where 0 is no effect and 10 is complete control
[2] = scale of 0 to 10 where 0 is no effect and 10 is complete control
[3] = Rate 250 g/ha, scale 0 (no effect) to 10 (complete control)
[4] = Rate 31 g/ha, visual rating, scale 0 to 10 (0 no effect, 10 complete control)
[5] = Rate 500 g/ha, scale 0 to 10 (0 no effect, 10 complete control)

CC(=O)NCCn1c(=O)on(C(=O)N(c2ccc(F)cc2)C(C)C)c1=O [Compound 727]
Wild oats plant response rating (wild oat; [1]): 0
Plant response rating, Wild oats (wild oat; [2]): 3
Wild oats plant response rating (wild oat; [3]): 3
Wheat plant response rating (wheat; [1]): 0
Plant response rating, Wheat (wheat; [2]): 0
Wheat plant response rating (wheat; [3]): 0
Bedstraw plant response rating (bedstraw; [4]): 0
Bedstraw plant response rating (bedstraw; [1]): 0
Plant response rating, Bedstraw (bedstraw; [2]): 0
Bedstraw plant response rating (bedstraw; [3]): 0
Velvetleaf plant response rating (velvetleaf; [1]): 0
Plant response rating, Velvetleaf (velvetleaf; [2]): 0
Velvetleaf plant response rating (velvetleaf; [3]): 0
Giant foxtail plant response rating (giant foxtail; [4]): 5
Giant foxtail plant response rating (giant foxtail; [1]): 7
Plant response rating, Giant foxtail (giant foxtail; [2]): 7
Giant foxtail plant response rating (giant foxtail; [3]): 10
Cocklebur plant response rating (cocklebur; [4]): 0
Cocklebur plant response rating (cocklebur; [1]): 0
Plant response rating, Cocklebur (cocklebur; [2]): 0
Cocklebur plant response rating (cocklebur; [3]): 0
Sugarbeets plant response rating (sugar beet; [1]): 0
Plant response rating, Sugarbeets (sugar beet; [2]): 0
Sugarbeets plant response rating (sugar beet; [3]): 0
Corn plant response rating (corn; [4]): 0
Corn plant response rating (corn; [1]): 0
Plant response rating, Corn (corn; [2]): 0
Corn plant response rating (corn; [3]): 0
Morningglory plant response rating (morningglory; [1]): 0
Plant response rating, Morningglory (morningglory; [2]): 0
Morningglory plant response rating (morningglory; [3]): 0
Rape plant response rating (rape; [1]): 0
Plant response rating, Rape (rape; [2]): 0
Rape plant response rating (rape; [3]): 1
Blackgrass plant response rating (blackgrass; [4]): 0
Blackgrass plant response rating (blackgrass; [1]): 0
Plant response rating, Blackgrass (blackgrass; [2]): 7
Blackgrass plant response rating (blackgrass; [3]): 8
Soybean plant response rating (soybean; [1]): 0
Plant response rating, Soybean (soybean; [2]): 0
Soybean plant response rating (soybean; [3]): 0
Crabgrass plant response rating (crabgrass; [4]): 3
Crabgrass plant response rating (crabgrass; [1]): 3
Plant response rating, Crabgrass (crabgrass; [2]): 8
Crabgrass plant response rating (crabgrass; [3]): 9
Redroot pigweed plant response rating (pigweed; [1]): 0
Plant response rating, Redroot pigweed (pigweed; [2]): 5
Redroot pigweed plant response rating (pigweed; [3]): 5
B. signalgrass plant response rating (surinam grass; [4]): 0
B. signalgrass plant response rating (surinam grass; [1]): 0
Plant response rating, B. signalgrass (surinam grass; [2]): 6
B. signalgrass plant response rating (surinam grass; [3]): 7
Plant response rating, Nutsedge (purple nutsedge; [2]): 0
Nutsedge plant response rating (purple nutsedge; [3]): 0

COCC(OC)n1c(=O)on(C(=O)N(c2ccccc2)C(C)C)c1=O (stereo not shown) [Compound 734]
Wild oats plant response rating (wild oat; [1]): 3
Plant response rating, Wild oats (wild oat; [2]): 8
Wild oats plant response rating (wild oat; [3]): 10
Wild oats plant response rating (wild oat; [5]): 10
Wheat plant response rating (wheat; [1]): 0
Plant response rating, Wheat (wheat; [2]): 7
Wheat plant response rating (wheat; [3]): 8
Wheat plant response rating (wheat; [5]): 9
Bedstraw plant response rating (bedstraw; [1]): 0
Plant response rating, Bedstraw (bedstraw; [2]): 0
Bedstraw plant response rating (bedstraw; [3]): 0
Bedstraw plant response rating (bedstraw; [5]): 0
Velvetleaf plant response rating (velvetleaf; [1]): 2
Plant response rating, Velvetleaf (velvetleaf; [2]): 3
Velvetleaf plant response rating (velvetleaf; [3]): 5
Velvetleaf plant response rating (velvetleaf; [5]): 7
Giant foxtail plant response rating (giant foxtail; [1]): 9
Plant response rating, Giant foxtail (giant foxtail; [2]): 10
Giant foxtail plant response rating (giant foxtail; [3]): 10
Giant foxtail plant response rating (giant foxtail; [5]): 10
Cocklebur plant response rating (cocklebur; [1]): 0
Plant response rating, Cocklebur (cocklebur; [2]): 0
Cocklebur plant response rating (cocklebur; [3]): 0
Cocklebur plant response rating (cocklebur; [5]): 0
Sugarbeets plant response rating (sugar beet; [1]): 0
Plant response rating, Sugarbeets (sugar beet; [2]): 2
Sugarbeets plant response rating (sugar beet; [3]): 5
Sugarbeets plant response rating (sugar beet; [5]): 8
Corn plant response rating (corn; [1]): 0
Plant response rating, Corn (corn; [2]): 5
Corn plant response rating (corn; [3]): 9
Corn plant response rating (corn; [5]): 9
Morningglory plant response rating (morningglory; [1]): 2
Plant response rating, Morningglory (morningglory; [2]): 2
Morningglory plant response rating (morningglory; [3]): 3
Morningglory plant response rating (morningglory; [5]): 6
Rape plant response rating (rape; [1]): 0
Plant response rating, Rape (rape; [2]): 2
Rape plant response rating (rape; [3]): 5
Rape plant response rating (rape; [5]): 7
Blackgrass plant response rating (blackgrass; [1]): 7
Plant response rating, Blackgrass (blackgrass; [2]): 9
Blackgrass plant response rating (blackgrass; [3]): 9
Blackgrass plant response rating (blackgrass; [5]): 10
Soybean plant response rating (soybean; [1]): 0
Plant response rating, Soybean (soybean; [2]): 0
Soybean plant response rating (soybean; [3]): 0
Soybean plant response rating (soybean; [5]): 7
Crabgrass plant response rating (crabgrass; [1]): 9
Plant response rating, Crabgrass (crabgrass; [2]): 9
Crabgrass plant response rating (crabgrass; [3]): 9
Crabgrass plant response rating (crabgrass; [5]): 10
Redroot pigweed plant response rating (pigweed; [1]): 2
Plant response rating, Redroot pigweed (pigweed; [2]): 7
Redroot pigweed plant response rating (pigweed; [3]): 8
Redroot pigweed plant response rating (pigweed; [5]): 8
B. signalgrass plant response rating (surinam grass; [1]): 9
Plant response rating, B. signalgrass (surinam grass; [2]): 9
B. signalgrass plant response rating (surinam grass; [3]): 9
B. signalgrass plant response rating (surinam grass; [5]): 9
Nutsedge plant response rating (purple nutsedge; [1]): 0
Plant response rating, Nutsedge (purple nutsedge; [2]): 0
Nutsedge plant response rating (purple nutsedge; [3]): 0

CCOC(CC)n1c(=O)on(C(=O)N(c2ccc(F)cc2)C(C)C)c1=O (stereo not shown) [Compound 742]
Plant response rating, Wild oats (wild oat; [2]): 0
Wild oats plant response rating (wild oat; [3]): 0
Wild oats plant response rating (wild oat; Rate 62 g/ha, scale 0 to 10): 0
Wild oats plant response rating (wild oat; [5]): 0
Plant response rating, Wheat (wheat; [2]): 0
Wheat plant response rating (wheat; [3]): 0
Wheat plant response rating (wheat; Rate 62 g/ha, scale 0 to 10): 0
Wheat plant response rating (wheat; [5]): 0
Plant response rating, Bedstraw (bedstraw; [2]): 0
Bedstraw plant response rating (bedstraw; [3]): 0
Bedstraw plant response rating (bedstraw; Rate 62 g/ha, scale 0 to 10): 0
Bedstraw plant response rating (bedstraw; [5]): 0
Plant response rating, Velvetleaf (velvetleaf; [2]): 0
Velvetleaf plant response rating (velvetleaf; [3]): 0
Velvetleaf plant response rating (velvetleaf; Rate 62 g/ha, scale 0 to 10): 0
Velvetleaf plant response rating (velvetleaf; [5]): 0
Plant response rating, Giant foxtail (giant foxtail; [2]): 0
Giant foxtail plant response rating (giant foxtail; [3]): 0
Giant foxtail plant response rating (giant foxtail; Rate 62 g/ha, scale 0 to 10): 0
Giant foxtail plant response rating (giant foxtail; [5]): 0
Plant response rating, Cocklebur (cocklebur; [2]): 0
Cocklebur plant response rating (cocklebur; [3]): 0
Cocklebur plant response rating (cocklebur; Rate 62 g/ha, scale 0 to 10): 0
Cocklebur plant response rating (cocklebur; [5]): 0
Plant response rating, Sugarbeets (sugar beet; [2]): 0
Sugarbeets plant response rating (sugar beet; [3]): 0
Sugarbeets plant response rating (sugar beet; Rate 62 g/ha, scale 0 to 10): 0
Sugarbeets plant response rating (sugar beet; [5]): 0
Plant response rating, Corn (corn; [2]): 0
Corn plant response rating (corn; [3]): 0
Corn plant response rating (corn; Rate 62 g/ha, scale 0 to 10): 0
Corn plant response rating (corn; [5]): 0
Plant response rating, Morningglory (morningglory; [2]): 0
Morningglory plant response rating (morningglory; [3]): 0
Morningglory plant response rating (morningglory; Rate 62 g/ha, scale 0 to 10): 0
Morningglory plant response rating (morningglory; [5]): 0
Plant response rating, Rape (rape; [2]): 0
Rape plant response rating (rape; [3]): 0
Rape plant response rating (rape; Rate 62 g/ha, scale 0 to 10): 0
Rape plant response rating (rape; [5]): 0
Plant response rating, Blackgrass (blackgrass; [2]): 0
Blackgrass plant response rating (blackgrass; [3]): 0
Blackgrass plant response rating (blackgrass; Rate 62 g/ha, scale 0 to 10): 0
Blackgrass plant response rating (blackgrass; [5]): 0
Plant response rating, Soybean (soybean; [2]): 0
Soybean plant response rating (soybean; [3]): 0
Soybean plant response rating (soybean; Rate 62 g/ha, scale 0 to 10): 0
Soybean plant response rating (soybean; [5]): 0
Plant response rating, Crabgrass (crabgrass; [2]): 0
Crabgrass plant response rating (crabgrass; [3]): 0
Crabgrass plant response rating (crabgrass; Rate 62 g/ha, scale 0 to 10): 0
Crabgrass plant response rating (crabgrass; [5]): 0
Plant response rating, Redroot pigweed (pigweed; [2]): 0
Redroot pigweed plant response rating (pigweed; [3]): 0
Redroot pigweed plant response rating (pigweed; Rate 62 g/ha, scale 0 to 10): 0
Redroot pigweed plant response rating (pigweed; [5]): 0
B. signalgrass plant response rating (surinam grass; [1]): 0
Plant response rating, B. signalgrass (surinam grass; [2]): 0
B. signalgrass plant response rating (surinam grass; [3]): 0
B. signalgrass plant response rating (surinam grass; [5]): 0
Plant response rating, Nutsedge (purple nutsedge; [2]): 0
Nutsedge plant response rating (purple nutsedge; [3]): 0
Nutsedge plant response rating (purple nutsedge; Rate 62 g/ha, scale 0 to 10): 0
Nutsedge plant response rating (purple nutsedge; [5]): 0
